Results published in patent US20120146009A1, “NOVEL COMPOUND, FIELD-EFFECTIVE TRANSISTOR, SOLAR CELL, METHOD FOR PRODUCING SAID COMPOUND, FIELD-EFFECTIVE TRANSISTOR, AND SOLAR CELL, COMPOSITION FOR ORGANIC SEMICONDUCTOR LAYER, AND COMPOSITION FOR P-TYPE SEMICONDUCTOR LAYER” (Sharp Kabushiki Kaisha, priority 2009, published 2012).
Read-outs that look alike come from different tables or passages of the source.

Experiments:
[1] = HOMO level (ionization potential) by photoelectric spectroscopy in the atmosphere; type: physicochemical
Procedure: (§1) An absorption spectrum (absorption peak wavelength λmax, molar absorbance coefficient c) of Compound 1 thus synthesized was measured. Further, a HOMO level (ionization potential) of Compound 1 was measured by photoelectric spectroscopy in the atmosphere (SC-2).
(§2) Note that, for the result of pentacene shown in Table 2, the absorption spectrum described in Reference Document 1 (J. Am. Chem. Soc. 2007, 129, 2225) was used, and the HOMO level described in Reference Document 2 (Jpn. J. Appl. Phys. 2005, 44, 561) was used.

[2] = Properties of the isolated crystal in the atmosphere; type: physicochemical; settings: yellow crystal
Procedure: Into an anhydrous DMF (15 ml) solution of Intermediate 1 (0.42 g, 1.5 mmol), sodium hydride (60%, 0.13 g, 3.1 mmol) was added little by little. The resultant solution was left at room temperature for 2 hours. After that, 1-bromohexane (0.5 g, 3 mmol) was added to the solution, and the solution was agitated for further 2 hours. A solvent was removed away under reduced pressure, and a residue was extracted with methylene chloride. The residue from which the solvent was distilled away was recrystallized from hexane so that 0.28 g of Compound 1 was obtained (yield: 41%).

[3] = Stability against aerial oxidation (absorption intensity of solution in air-saturated methylene chloride, dark place); type: physicochemical; settings: immediately after preparation to 1 week
Procedure: Next, stability of Compound 1 against aerial oxidation was evaluated. A solution of Compound 1 was prepared with the use of air-saturated methylene chloride as a solvent, and was left in a dark place. The absorption spectrum was measured during a time period from immediately after the preparation to 1 week after the preparation, so as to trace how an absorption intensity of the solution of Compound 1 was changed during the above time period (see Reference Document 1 described above).

[4] = Absorption spectrum in CH2Cl2; type: physicochemical
Procedure: as §1, §2

Solubility in solvent = type: physicochemical
[5] = background statement; cited from earlier work
[6] = from Reference Document 2; cited from earlier work
[7] = from Reference Document 1; cited from earlier work
[8] = same condition, left for 24 hours, Reference Document 1; cited from earlier work

SMILES: CCCCCCN1c2cc3ccccc3cc2N(CCCCCC)c2cc3ccccc3cc21 [Compound 1]
- Photoelectric spectroscopy HOMO [1]: −4.89 eV
- Hydroscopic property [2]: no hydroscopic property
- Stability in the atmosphere [2]: stable compound without any deterioration in the atmosphere
- Change in absorption intensity of solution [3]: no change in absorption intensity
- Absorption spectrum λ max ([4]; in CH2CL2): 422 nm
- Absorption spectrum log ε ([4]; in CH2CL2, at λ max): (log ε = 4.58)
- Resolvability with respect to a solvent (Solubility in solvent): excellent resolvability

SMILES: c1ccc2cc3c(cc2c1)Nc1cc2ccccc2cc1N3 [DHDAP, dihydrodiazapentacene]
- Solubility [5]: low in solubility

SMILES: c1ccc2cc3cc4cc5ccccc5cc4cc3cc2c1 [Pentacene, pentacene]
- Photoelectric spectroscopy HOMO [6]: −5.0 eV
- Absorption spectrum λ max [7]: 575 nm
- Change in absorption intensity of solution [8]: absorption intensity was substantially eliminated
